Article PMC9785606, “Design and Synthesis of Novel Phenylahistin Derivatives Based on Co-Crystal Structures as Potent Microtubule Inhibitors for Anti-Cancer Therapy” (Marine Drugs, 2022)

What was measured:
[1] = test system: human lung cancer NCI-H460 cell line; assay: MTT cytotoxicity assay, lung cancer NCI-H460 cell line; type: cell-based; conditions: Homo sapiens, NCI-H460, 72 h, mean ± SD
Method: Human cancer cell lines (lung cancer NCI-H460 cell line, pancreatic cancer BxPC-3 cell line, colon cancer HT-29 cell line) were purchased from American Type Cell Culture Collection (ATCC, Manassas, VA, USA). Cells were maintained in RPMI-1640 medium supplemented with 10% (v/v) heat-inactivated fetal bovine serum, penicillin-streptomycin (100 U/mL-100 […]) at 37 °C in a humidified atmosphere (5% CO2–95% air). All tested derivatives were dissolved in 100% cell culture grade DMSO. Cells (3 × 10^3 per well) were seeded in 96-well plates for 24 h. Then, cells were treated with the tested compounds in six concentrations for 72 h. Cell viability was assessed by MTT assay. The absorbance at 490 nm was measured with a Microplate Reader (Molecular Devices, Silicon Valley, CA, USA). The data were analyzed by Origin 8.5 (OriginLab, Northampton, MA, USA).

[2] = Stability of liver microsomal metabolism; type: in vitro ADME, rat; conditions: 37 °C
Method: The total volume of the incubation system is 1 mL, which contains 1 mmol/L NADPH, 0.5 mg/mL rat liver microsomes, 1 μmol/L 15p standard solution, which was supplemented with K2HPO4 buffer to 1 mL. The solution should be added to the incubation system. The incubation system was rapidly incubated in a water bath shaker at 37 °C for 5 min before adding 200 μL of 5 mmol/L NADPH. The 50 μL of the incubation system was quickly removed at 0, 5, 10, 20, 40, 60, 90, 120, 150, 210, and 270 min. The concentrations of the samples to be measured (15p) in rat liver microsomes were measured by HPLC-MS/MS. Each sample was operated on three times in parallel. The experimental data were processed and plotted using the computer programs Microsoft Excel (97–2003) and Origin 7.5 software.

Q: With `C=CCn1cnc(/C=c2\[nH]c(=O)/c(=C/c3cccc(C(=O)c4ccc(F)cc4)c3)[nH]c2=O)c1C(C)C` [15p] as the compound, how does the IC50 [1] read?
A: Its IC50 is 1.03 ± 0.18 nM.

Q: What about the “Clearance by liver microsomes” value ([2]; NADPH) of the same compound?
A: The value was “quickly cleared by liver microsomes”.

Q: What about the Total clearance (CL) at 1 μmol/L ([2]; Wistar, rat, rat liver microsomes, rat liver microsomes 0.5 mg/mL, 1 μmol/L) of the same compound?
A: Its Total clearance (CL) at 1 μmol/L is 80.6 mL/min/kg.

Q: And the CLint scaled at 1 μmol/L ([2]; Wistar, rat, rat liver microsomes, rat liver microsomes 0.5 mg/mL, 1 μmol/L, read-out: CLint (intrinsic clearance))?
A: Its CLint scaled at 1 μmol/L is 772 mL/min/kg.

Q: And the half-life at 1 μmol/L ([2]; Wistar, rat liver microsomes 0.5 mg/mL, 1 μmol/L)?
A: Its half-life at 1 μmol/L is 7.07 min.

Q: And the melting point?
A: Its melting point is 200 to 202 °C.
